“And” between values parts separate entries of the source, which are not always exact repeats. Equal entries are not always repeated. Where two headings read alike, the source gives them in different places.
Columns and labels:
[1] = tested on: DFB skin melanoma cell line; details: read-out: IC50 of Salt I on survival
Source text: (§1) Cell proliferation kit II is purchased from Roche Diagnostic GmbH (Mannheim, Germany). The test is based on a colorimetric change of the yellow tetrazolium slat XTT into orange formazan dye by the respiratory chain of viable cells (Roehm et al., 1991, J. Immunol. Assay, 142:257-265).

UM 92-1 cells = details: runs 1 and 2
Source text: (§2) The test is based on a colorimetric change of the yellow tetrazolium slat XTT into orange formazan dye by the respiratory chain of viable cells (Roehm et al., 1991, J. Immunol. Assay, 142:257-265).

[2] = tested on: BE skin melanoma cell line; details: read-out: IC50 of Salt I on survival
Source text: as §1

mel 202 cells = experiment: XTT cell viability, uveal melanoma cell line mel 202; details: for percentages of living cells as compared to 100% survival of untreated cells: runs 1 and 2
Source text: as §2

[3] = tested on: uveal melanoma cell lines (OCM-1, OCM-3, 92-1 and mel 202); experiment: Survival / cell death of the four uveal melanoma cell lines; type: cell-based, human
Source text: Cell culture: Four cell lines obtained from human primary uveal melanomas (OCM-1, OCM-3, 92-1 and mel 202) are used.

OCM-3 cells = experiment: XTT cell viability, uveal melanoma cell line OCM-3; details: for percentages of living cells as compared to 100% survival of untreated cells: runs 1 and 2
Source text: as §2

OCM-1 cells = experiment: XTT cell viability, uveal melanoma cell line OCM-1; details: for percentages of living cells as compared to 100% survival of untreated cells: runs 1 and 2
Source text: as §2

c-kit = c-kit (Homo sapiens, UniProt P10721); details: treatment of uveal melanoma cell lines
Chain of c-kit (P10721 26-976): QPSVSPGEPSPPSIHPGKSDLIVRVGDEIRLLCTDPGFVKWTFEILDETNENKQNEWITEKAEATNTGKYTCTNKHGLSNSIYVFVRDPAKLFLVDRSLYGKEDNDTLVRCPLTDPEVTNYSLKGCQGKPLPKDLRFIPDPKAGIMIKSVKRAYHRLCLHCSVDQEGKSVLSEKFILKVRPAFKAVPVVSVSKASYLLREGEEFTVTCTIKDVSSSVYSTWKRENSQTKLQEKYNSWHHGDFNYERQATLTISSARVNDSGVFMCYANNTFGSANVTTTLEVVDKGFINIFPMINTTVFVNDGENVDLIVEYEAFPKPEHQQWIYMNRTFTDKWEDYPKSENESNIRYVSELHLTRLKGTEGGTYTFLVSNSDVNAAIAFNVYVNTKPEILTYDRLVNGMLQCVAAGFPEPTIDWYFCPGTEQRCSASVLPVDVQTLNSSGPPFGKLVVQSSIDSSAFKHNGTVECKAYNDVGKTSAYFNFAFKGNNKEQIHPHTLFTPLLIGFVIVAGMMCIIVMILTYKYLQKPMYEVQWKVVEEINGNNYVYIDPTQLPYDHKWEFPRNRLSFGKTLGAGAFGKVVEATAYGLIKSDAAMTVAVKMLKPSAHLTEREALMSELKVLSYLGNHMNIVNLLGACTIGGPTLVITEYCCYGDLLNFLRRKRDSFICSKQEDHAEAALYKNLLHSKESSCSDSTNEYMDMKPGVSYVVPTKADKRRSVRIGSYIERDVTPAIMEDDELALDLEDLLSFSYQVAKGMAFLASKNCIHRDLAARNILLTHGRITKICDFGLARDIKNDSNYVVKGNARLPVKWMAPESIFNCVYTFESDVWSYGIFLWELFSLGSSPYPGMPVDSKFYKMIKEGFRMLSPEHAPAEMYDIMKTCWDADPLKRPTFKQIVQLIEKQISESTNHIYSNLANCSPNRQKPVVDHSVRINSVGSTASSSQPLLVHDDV

CS(=O)(=O)O.Cc1ccc(NC(=O)c2ccc(CN3CCN(C)CC3)cc2)cc1Nc1nccc(-c2cccnc2)n1 [Salt I]
Salt I responsiveness (skin melanoma cell lines): no respondent
IC50 [1]: > 20000 nM
percentages of living cells as compared to 100% survival of untreated cells (UM 92-1 cells; UM 92-1, 24 h, 0.3 μM Salt I): 98% and 91%
percentages of living cells as compared to 100% survival of untreated cells (UM 92-1 cells; UM 92-1, 24 h, 0.6 μM Salt I): 95%
percentages of living cells as compared to 100% survival of untreated cells (UM 92-1 cells; UM 92-1, 24 h, 5 μM Salt I): 83% and 75%
percentages of living cells as compared to 100% survival of untreated cells (UM 92-1 cells; UM 92-1, 24 h, 10 μM Salt I): 70% and 83%
percentages of living cells as compared to 100% survival of untreated cells (UM 92-1 cells; UM 92-1, 48 h, 0.3 μM Salt I): 85% and 90%
percentages of living cells as compared to 100% survival of untreated cells (UM 92-1 cells; UM 92-1, 48 h, 0.6 μM Salt I): 79% and 71%
percentages of living cells as compared to 100% survival of untreated cells (UM 92-1 cells; UM 92-1, 48 h, 5 μM Salt I): 15% and 22%
percentages of living cells as compared to 100% survival of untreated cells (UM 92-1 cells; UM 92-1, 48 h, 10 μM Salt I): 0% and 5%
IC50 [2]: > 20000 nM
percentages of living cells as compared to 100% survival of untreated cells (mel 202 cells; mel 202, 24 h, 0.3 μM Salt I): 98% and 105%
percentages of living cells as compared to 100% survival of untreated cells (mel 202 cells; mel 202, 24 h, 0.6 μM Salt I): 92% and 104%
percentages of living cells as compared to 100% survival of untreated cells (mel 202 cells; mel 202, 24 h, 5 μM Salt I): 97% and 101%
percentages of living cells as compared to 100% survival of untreated cells (mel 202 cells; mel 202, 24 h, 10 μM Salt I): 78% and 87%
percentages of living cells as compared to 100% survival of untreated cells (mel 202 cells; mel 202, 48 h, 0.3 μM Salt I): 23% and 14%
percentages of living cells as compared to 100% survival of untreated cells (mel 202 cells; mel 202, 48 h, 0.6 μM Salt I): 19% and 17%
percentages of living cells as compared to 100% survival of untreated cells (mel 202 cells; mel 202, 48 h, 5 μM Salt I): 23% and 15%
IC50 (mel 202 cells; read-out: IC50 of Salt I on survival, uveal melanoma cell line mel 202, Example 1: 48 hours exposure): 70 nM
cell loss ([3]; uveal melanoma cell lines, even at low concentrations of Salt I): drastic cell loss
percentages of living cells as compared to 100% survival of untreated cells (OCM-3 cells; OCM-3, 24 h, 0.3 μM Salt I): 100% and 97%
percentages of living cells as compared to 100% survival of untreated cells (OCM-3 cells; OCM-3, 24 h, 0.6 μM Salt I): 100% and 105%
percentages of living cells as compared to 100% survival of untreated cells (OCM-3 cells; OCM-3, 24 h, 5 μM Salt I): 85% and 83%
percentages of living cells as compared to 100% survival of untreated cells (OCM-3 cells; OCM-3, 24 h, 10 μM Salt I): 87% and 98%
percentages of living cells as compared to 100% survival of untreated cells (OCM-3 cells; OCM-3, 48 h, 0.3 μM Salt I): 43% and 39%
percentages of living cells as compared to 100% survival of untreated cells (OCM-3 cells; OCM-3, 48 h, 0.6 μM Salt I): 34% and 27%
IC50 (OCM-3 cells; read-out: IC50 of Salt I on survival, uveal melanoma cell line OCM-3, Example 1: 48 hours exposure): 150 nM
percentages of living cells as compared to 100% survival of untreated cells (OCM-1 cells; OCM-1, 24 h, 0.3 μM Salt I): 95% and 97%
percentages of living cells as compared to 100% survival of untreated cells (OCM-1 cells; OCM-1, 24 h, 0.6 μM Salt I): 87% and 82%
percentages of living cells as compared to 100% survival of untreated cells (OCM-1 cells; OCM-1, 24 h, 5 μM Salt I): 63%
percentages of living cells as compared to 100% survival of untreated cells (OCM-1 cells; OCM-1, 24 h, 10 μM Salt I): 50% and 52%
percentages of living cells as compared to 100% survival of untreated cells (OCM-1 cells; OCM-1, 48 h, 0.3 μM Salt I): 62% and 59%
percentages of living cells as compared to 100% survival of untreated cells (OCM-1 cells; OCM-1, 48 h, 0.6 μM Salt I): 40% and 37%
percentages of living cells as compared to 100% survival of untreated cells (OCM-1 cells; OCM-1, 48 h, 5 μM Salt I): 27% and 23%
percentages of living cells as compared to 100% survival of untreated cells (OCM-1 cells; OCM-1, 48 h, 10 μM Salt I): 23% and 29%
IC50 (OCM-1 cells; read-out: IC50 of Salt I on survival, uveal melanoma cell line OCM-1, Example 1: 48 hours exposure): 400 nM

Cc1ccc(NC(=O)c2ccc(CN3CCN(C)CC3)cc2)cc1Nc1nccc(-c2cccnc2)n1 [Compound I]
cell death in vitro ([3]; four uveal melanoma cell lines): promotes in vitro cell death
effect on c-kit auto-phosphorylation (c-kit): blocks c-kit auto-phosphorylation
